Assay results reported in publication PMC11320742, “Radiosynthesis and Evaluation of 11C-Labeled Isoindolone-Based Positive Allosteric Modulators for Positron Emission Tomography Imaging of Metabotropic Glutamate Receptor 2” (ACS Pharmacology & Translational Science, 2024).

Columns and labels:
mGluR2 [1] = experiment: In vitro autoradiography of NHP prefrontal cortex with [3H]AZ12559322 (blocking); type: binding, cynomolgus monkey; conditions: blocker 5 μM, n = 2
Description: (§1) Encouraged by the promising ligand–protein binding ability of AZ12559322, in vitro autoradiography (ARG) studies were conducted on rat brain tissues to assess the binding specificity of [^3H]AZ12559322. Consistent with previous reports of the regional mGluR2 expression in the rat brain,[45] […] Subsequently, in vitro ARG studies with brain regions from cynomolgus monkeys were conducted to confirm the specificity in higher species. […] Subsequent immunohistochemical analyses verified that […] was binding to the regions with high expression of mGluR2 (see Figure S2 in the Supporting Information). Altogether, these studies indicated high mGluR2 in vitro binding specificity of AZ12559322 on rat and NHP brain tissue sections and positive allosteric mechanism of action.
Figure 6 In vitro autoradiography and quantitative analyses of NHP prefrontal cortex with [^3H]AZ12559322 (n = 2). Total binding and nonspecific binding in the presence of 5 μM of LY-487379 or AZD8418. *p < 0.05.
(§2) The tritium-labeled ligand [^3H]AZ12559322 for ARG studies was prepared by AstraZeneca.[23] Briefly, the brain sections of rat or cynomolgus monkey brains in 20 μm thickness were warmed to room temperature in a vacuum chamber over 3 h on the day of the experiment.[52] All sections were incubated in 50 mM Tris HCl, 5 mM MgCl2, and 0.9% NaCl (pH 7.4) for 5 min at room temperature. […]

mGluR2 [2] = molecular target: T1, mGluR2 (Homo sapiens, UniProt Q14416); experiment: Saturation binding of tritiated ligands on CHO membranes stably expressing mGluR2; conditions: for Ki: mGluR2, CHO membranes; for Kd: saturation binding of tritiated ligand, CHO membranes expressing mGluR2
T1 construct: expressed in transfected cells; host or cells: CHO
Description: (§3) To determine the binding affinities, saturation binding experiments of the corresponding tritiated ligands were conducted on CHO membranes stably expressing mGluR2. […] Multiparameter optimization (MPO) is a valuable tool to evaluate the BBB permeability of drug candidates. […] To investigate the selectivity of AZ12559322 for mGluR2, further counter-screening of AZ12559322 was conducted, and the results are detailed in Figure 3C.

CYP2C9 = CYP2C9 (Homo sapiens, UniProt P11712); experiment: CYP inhibition; type: in vitro ADME
CYP2C19 = CYP2C19 (Homo sapiens, UniProt P33261); experiment: CYP inhibition; type: in vitro ADME
hERG channel = hERG channel (Homo sapiens, UniProt Q12809); experiment: hERG channel inhibition; type: biochemical
CYP2D6 = CYP2D6 (Homo sapiens, UniProt P10635); experiment: CYP inhibition; type: in vitro ADME
CYP3A4 = CYP3A4 (Homo sapiens, UniProt P08684); experiment: CYP inhibition; type: in vitro ADME
pKa = type: physicochemical
Description: as §3

CYP1A2 = molecular target: T2, CYP1A2 (Homo sapiens, UniProt P05177); experiment: CYP inhibition; type: in vitro ADME
T2 sequence (P05177 1-516): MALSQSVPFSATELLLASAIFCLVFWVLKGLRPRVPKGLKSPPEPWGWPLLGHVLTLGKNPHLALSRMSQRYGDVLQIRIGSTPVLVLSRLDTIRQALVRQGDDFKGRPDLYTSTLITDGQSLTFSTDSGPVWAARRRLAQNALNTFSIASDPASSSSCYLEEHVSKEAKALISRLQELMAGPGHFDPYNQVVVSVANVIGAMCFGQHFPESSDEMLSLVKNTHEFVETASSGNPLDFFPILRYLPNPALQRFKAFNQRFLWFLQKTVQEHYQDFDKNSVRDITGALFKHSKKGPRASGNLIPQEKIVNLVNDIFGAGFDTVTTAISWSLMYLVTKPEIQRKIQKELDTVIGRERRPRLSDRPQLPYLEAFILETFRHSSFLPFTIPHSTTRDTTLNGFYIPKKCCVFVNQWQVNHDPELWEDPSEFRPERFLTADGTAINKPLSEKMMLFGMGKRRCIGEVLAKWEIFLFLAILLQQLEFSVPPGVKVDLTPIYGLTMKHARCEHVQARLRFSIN

mGluR2 [3] = molecular target: T3, mGluR2 (Rattus norvegicus, UniProt P31421); experiment: In vitro ARG of [3H]AZ12559322 on rat brain tissues (binding data, Figure S1); conditions: determined by in vitro ARG of [3H]AZ12559322 on rat brain tissues
T3 construct: the brain sections of rat or cynomolgus monkey brains in 20 μm thickness; from tissue; host or cells: rat brain sections
Description: To determine the binding affinities, saturation binding experiments of the corresponding tritiated ligands were conducted on CHO membranes stably expressing mGluR2. […] The blood–brain barrier permeability (log BB) values of 3a–3c were predicted in the range of −0.14 to −0.51. Multiparameter optimization (MPO) is a valuable tool to evaluate the BBB permeability of drug candidates. In general, CNS MPO scores on a scale between 0 and 6, and the score value ≥4.0 is highly desirable. […] Therefore, AZ12559322 was selected as the most promising mGluR2 PAM for further ADME profiling. To investigate the selectivity of AZ12559322 for mGluR2, further counter-screening of AZ12559322 was conducted, and the results are detailed in Figure 3C.
as §2, with “temperature. The brain sections were dried and incubated with [^3H]AZ12559322 in the above buffer for 30 min at ambient temperature.” for “temperature.”

mGluR8 = mGluR8 (Homo sapiens, UniProt O00222); experiment: Counter-screening, mGluR family selectivity; type: biochemical
Description: as §3

mGluR3 = mGluR3 (Homo sapiens, UniProt Q14832); experiment: Counter-screening, mGluR family selectivity; type: biochemical
Description: as §3

mGluR6 = mGluR6 (Homo sapiens, UniProt O15303); experiment: Counter-screening, mGluR family selectivity; type: biochemical
Description: as §3

mGluR7 = mGluR7 (Homo sapiens, UniProt Q14831); experiment: Counter-screening, mGluR family selectivity; type: biochemical
Description: as §3

mGluR2 [4] = molecular target: T1, mGluR2; experiment: Counter-screening, mGluR family selectivity; type: biochemical
Description: as §3

mGluR4 = mGluR4 (Homo sapiens, UniProt Q14833); experiment: Counter-screening, mGluR family selectivity; type: biochemical
Description: as §3

mGluR5 = mGluR5 (Homo sapiens, UniProt P41594); experiment: Counter-screening, mGluR family selectivity; type: biochemical
Description: as §3

mGluR1 = mGluR1 (Homo sapiens, UniProt Q13255); experiment: Counter-screening, mGluR family selectivity; type: biochemical
Description: as §3

mGluR2 [5] = molecular target: T3, mGluR2; experiment: In vitro autoradiography of rat brain tissue with [3H]AZ12559322 (baseline and blockade); type: binding; conditions: baseline; high in prefrontal cortex, cerebral cortex, hippocampus; low in thalamus
Description: as §1
Figure 5 In vitro autoradiography of rat brain tissue with [^3H]AZ12559322. (A) Autoradiograms after incubation with either [^3H]AZ12559322 only (baseline) or 10 μM AZ12522721 (blockade). (B) Quantitative analyses of the autoradiograms under baseline and blocking conditions (n = 4). ***p ≤ 0.001, ns = nonsignificant.
The tritium-labeled ligand [^3H]AZ12559322 for ARG studies was prepared by AstraZeneca.[23] Briefly, the brain sections of rat or cynomolgus monkey brains in 20 μm thickness were warmed to room temperature in a vacuum chamber over 3 h on the day of the experiment.[52] […]

mGluR2 [6] = experiment: In situ [35S]GTPγS autoradiography in NHP brain tissue; type: biochemical; conditions: in the presence of agonist LY379268
Description: as §1
(§4) The in situ GTPγS ARG studies in the rat and NHP brain tissues were conducted according to previous reports.[54] Briefly, […] thick brain tissue sections were incubated twice in assay buffer, pH 7.5 for 10 min at 25 °C and once in assay buffer with 2 mM GDP for 15 min at 25 °C. Slides were then incubated in an assay buffer containing 0.04 nM [^35S]GTPgS in the presence or absence of LY379268 and AZD8529 for 2 h at 25 °C. The incubation was stopped by washing twice for 3 min in ice-cold 50 mM Tris–HCl and a quick dip in ice-cold distilled water. […] Films were developed by standard techniques, digitized, and analyzed.

mGluR2 [7] = molecular target: T3, mGluR2; experiment: In situ [35S]GTPγS autoradiography in rat brain tissue; type: biochemical; conditions: in the presence of agonist LY379268
Description: as §1, §4

mGluR2 [8] = experiment: PET imaging in NHP; type: in vivo; conditions: cynomolgus monkey, IV injection, baseline
Description: With all three radioligands in hand, we sought to evaluate the feasibility of these radioligands for quantifying mGluR2 PAM occupancy in the NHP brain. PET imaging studies of [^11C]AZ12559322, [^11C]AZ12592068, and [^11C]AZ12588953 were performed in a cynomolgus monkey. Radioactivity was acquired for 120 min after IV injection of the respective radioligand. […] Further structural modification of these isoindolone derivatives is necessary to enhance brain exposure and provide a suitable radioligand for in vivo imaging.
PET imaging studies were conducted in one anesthetized healthy cynomolgus monkey and are fully detailed in Dahl et al.[53] The study was approved by the Stockholm Animal Research Ethical Committee (Dnr. N245/04). […] The head was immobilized with a fixation device, and body temperature was maintained by Bair Hugger model 505 (Arizant Healthcare, MN, USA) and continuously monitored by an esophageal thermometer. ECG, heart rate, blood pressure, respiratory rate, and oxygen saturation were continuously monitored throughout the experiments. […] Radioactivity in the brain was measured continuously for 123 min using the high-resolution research tomograph (HRRT; Siemens Molecular Imaging, Knoxville, TN, USA) according to a preprogrammed series of 34 frames.

T1 sequence (Q14416 19-872): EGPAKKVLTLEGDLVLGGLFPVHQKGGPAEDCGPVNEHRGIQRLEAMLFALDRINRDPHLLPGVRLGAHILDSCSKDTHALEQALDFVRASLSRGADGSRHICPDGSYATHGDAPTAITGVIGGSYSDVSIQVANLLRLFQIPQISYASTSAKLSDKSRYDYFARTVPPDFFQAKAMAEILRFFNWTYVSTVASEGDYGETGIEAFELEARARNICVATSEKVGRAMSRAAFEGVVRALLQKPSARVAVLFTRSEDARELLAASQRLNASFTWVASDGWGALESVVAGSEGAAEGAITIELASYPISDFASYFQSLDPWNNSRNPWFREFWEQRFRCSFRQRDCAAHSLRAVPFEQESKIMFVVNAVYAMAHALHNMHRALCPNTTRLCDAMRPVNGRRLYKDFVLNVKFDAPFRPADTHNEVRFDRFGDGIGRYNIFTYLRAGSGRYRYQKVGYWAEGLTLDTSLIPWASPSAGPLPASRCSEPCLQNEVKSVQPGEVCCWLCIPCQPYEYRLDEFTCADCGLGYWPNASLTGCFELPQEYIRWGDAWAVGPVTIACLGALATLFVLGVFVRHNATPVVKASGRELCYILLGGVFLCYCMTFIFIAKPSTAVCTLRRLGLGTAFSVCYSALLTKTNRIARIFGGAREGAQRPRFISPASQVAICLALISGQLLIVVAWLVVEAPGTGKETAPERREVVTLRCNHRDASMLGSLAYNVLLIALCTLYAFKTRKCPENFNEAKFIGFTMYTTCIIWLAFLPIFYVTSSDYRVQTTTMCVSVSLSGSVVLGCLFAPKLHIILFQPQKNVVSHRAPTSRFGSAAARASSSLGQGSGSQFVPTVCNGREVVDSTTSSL
T3 sequence (P31421 19-872): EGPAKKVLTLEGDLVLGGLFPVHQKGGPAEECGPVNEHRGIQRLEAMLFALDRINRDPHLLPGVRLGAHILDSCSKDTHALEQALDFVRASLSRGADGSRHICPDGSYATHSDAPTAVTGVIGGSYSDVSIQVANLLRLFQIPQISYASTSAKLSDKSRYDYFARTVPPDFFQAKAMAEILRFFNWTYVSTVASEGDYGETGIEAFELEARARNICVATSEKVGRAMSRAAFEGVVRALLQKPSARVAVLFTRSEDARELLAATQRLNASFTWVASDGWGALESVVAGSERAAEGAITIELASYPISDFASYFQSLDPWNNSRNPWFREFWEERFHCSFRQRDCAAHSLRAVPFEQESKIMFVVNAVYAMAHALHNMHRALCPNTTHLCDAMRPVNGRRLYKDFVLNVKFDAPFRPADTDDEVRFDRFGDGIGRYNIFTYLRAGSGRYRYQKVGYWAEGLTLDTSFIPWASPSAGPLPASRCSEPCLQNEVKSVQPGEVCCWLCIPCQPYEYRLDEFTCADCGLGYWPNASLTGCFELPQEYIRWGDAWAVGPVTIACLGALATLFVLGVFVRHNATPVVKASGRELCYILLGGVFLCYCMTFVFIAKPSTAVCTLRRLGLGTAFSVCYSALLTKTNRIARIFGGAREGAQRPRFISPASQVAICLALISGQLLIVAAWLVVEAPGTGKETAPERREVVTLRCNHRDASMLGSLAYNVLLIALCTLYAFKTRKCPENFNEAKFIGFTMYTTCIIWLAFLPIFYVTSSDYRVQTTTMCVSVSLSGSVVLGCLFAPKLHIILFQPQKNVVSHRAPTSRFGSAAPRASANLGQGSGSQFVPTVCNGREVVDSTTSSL
Sequence of CYP3A4 (P08684 whole entry): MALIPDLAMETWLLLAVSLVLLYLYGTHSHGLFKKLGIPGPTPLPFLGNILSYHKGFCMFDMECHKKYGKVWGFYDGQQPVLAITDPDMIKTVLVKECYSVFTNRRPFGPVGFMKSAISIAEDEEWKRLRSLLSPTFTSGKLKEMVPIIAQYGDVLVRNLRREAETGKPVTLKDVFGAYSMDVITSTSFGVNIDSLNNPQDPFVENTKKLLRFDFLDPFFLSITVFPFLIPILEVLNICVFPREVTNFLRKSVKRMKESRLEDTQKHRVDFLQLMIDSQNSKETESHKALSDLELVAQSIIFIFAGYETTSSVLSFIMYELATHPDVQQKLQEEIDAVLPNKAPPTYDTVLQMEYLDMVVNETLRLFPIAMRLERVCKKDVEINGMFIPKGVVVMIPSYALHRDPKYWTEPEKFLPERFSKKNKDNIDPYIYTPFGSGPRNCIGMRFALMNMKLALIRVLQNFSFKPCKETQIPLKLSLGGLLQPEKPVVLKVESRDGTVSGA
Sequence of CYP2C9 (P11712 whole entry): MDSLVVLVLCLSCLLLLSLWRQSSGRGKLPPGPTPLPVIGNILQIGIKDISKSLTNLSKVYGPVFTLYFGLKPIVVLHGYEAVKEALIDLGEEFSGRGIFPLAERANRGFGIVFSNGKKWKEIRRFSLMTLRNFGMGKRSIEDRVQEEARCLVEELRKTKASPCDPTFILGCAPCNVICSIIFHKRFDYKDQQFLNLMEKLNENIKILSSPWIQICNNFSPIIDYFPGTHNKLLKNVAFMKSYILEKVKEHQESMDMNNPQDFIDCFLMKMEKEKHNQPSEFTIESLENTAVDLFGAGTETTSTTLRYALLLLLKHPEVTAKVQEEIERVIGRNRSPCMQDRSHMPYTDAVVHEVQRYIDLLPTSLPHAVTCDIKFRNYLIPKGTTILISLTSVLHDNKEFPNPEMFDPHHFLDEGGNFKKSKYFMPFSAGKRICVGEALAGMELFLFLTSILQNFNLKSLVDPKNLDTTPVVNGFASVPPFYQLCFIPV
Sequence of CYP2D6 (P10635 whole entry): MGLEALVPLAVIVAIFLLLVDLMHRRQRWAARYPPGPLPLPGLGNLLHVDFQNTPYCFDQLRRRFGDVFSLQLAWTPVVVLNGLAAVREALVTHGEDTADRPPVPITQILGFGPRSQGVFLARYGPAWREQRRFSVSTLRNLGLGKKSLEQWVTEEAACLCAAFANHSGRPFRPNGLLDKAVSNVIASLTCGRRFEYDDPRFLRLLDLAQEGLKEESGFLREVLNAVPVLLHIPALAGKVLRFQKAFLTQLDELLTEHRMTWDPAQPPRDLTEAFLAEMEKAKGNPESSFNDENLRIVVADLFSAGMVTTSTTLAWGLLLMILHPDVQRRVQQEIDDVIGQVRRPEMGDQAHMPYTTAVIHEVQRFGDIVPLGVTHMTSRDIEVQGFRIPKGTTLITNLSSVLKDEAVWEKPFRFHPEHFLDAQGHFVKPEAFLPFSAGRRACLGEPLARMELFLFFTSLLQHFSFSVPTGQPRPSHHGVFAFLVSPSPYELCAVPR
Sequence of CYP2C19 (P33261 whole entry): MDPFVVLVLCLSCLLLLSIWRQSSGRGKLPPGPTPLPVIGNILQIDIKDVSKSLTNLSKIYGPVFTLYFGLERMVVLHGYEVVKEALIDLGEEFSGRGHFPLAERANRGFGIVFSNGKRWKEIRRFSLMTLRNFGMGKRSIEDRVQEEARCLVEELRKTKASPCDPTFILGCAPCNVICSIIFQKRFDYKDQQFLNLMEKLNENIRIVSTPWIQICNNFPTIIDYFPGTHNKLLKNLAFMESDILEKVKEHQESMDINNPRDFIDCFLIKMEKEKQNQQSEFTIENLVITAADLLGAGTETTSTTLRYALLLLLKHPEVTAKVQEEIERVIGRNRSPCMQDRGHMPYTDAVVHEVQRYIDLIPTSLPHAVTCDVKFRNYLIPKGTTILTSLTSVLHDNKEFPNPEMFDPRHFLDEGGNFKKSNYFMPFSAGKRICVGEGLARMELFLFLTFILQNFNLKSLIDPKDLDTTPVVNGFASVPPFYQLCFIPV
Sequence of mGluR6 (O15303 25-877): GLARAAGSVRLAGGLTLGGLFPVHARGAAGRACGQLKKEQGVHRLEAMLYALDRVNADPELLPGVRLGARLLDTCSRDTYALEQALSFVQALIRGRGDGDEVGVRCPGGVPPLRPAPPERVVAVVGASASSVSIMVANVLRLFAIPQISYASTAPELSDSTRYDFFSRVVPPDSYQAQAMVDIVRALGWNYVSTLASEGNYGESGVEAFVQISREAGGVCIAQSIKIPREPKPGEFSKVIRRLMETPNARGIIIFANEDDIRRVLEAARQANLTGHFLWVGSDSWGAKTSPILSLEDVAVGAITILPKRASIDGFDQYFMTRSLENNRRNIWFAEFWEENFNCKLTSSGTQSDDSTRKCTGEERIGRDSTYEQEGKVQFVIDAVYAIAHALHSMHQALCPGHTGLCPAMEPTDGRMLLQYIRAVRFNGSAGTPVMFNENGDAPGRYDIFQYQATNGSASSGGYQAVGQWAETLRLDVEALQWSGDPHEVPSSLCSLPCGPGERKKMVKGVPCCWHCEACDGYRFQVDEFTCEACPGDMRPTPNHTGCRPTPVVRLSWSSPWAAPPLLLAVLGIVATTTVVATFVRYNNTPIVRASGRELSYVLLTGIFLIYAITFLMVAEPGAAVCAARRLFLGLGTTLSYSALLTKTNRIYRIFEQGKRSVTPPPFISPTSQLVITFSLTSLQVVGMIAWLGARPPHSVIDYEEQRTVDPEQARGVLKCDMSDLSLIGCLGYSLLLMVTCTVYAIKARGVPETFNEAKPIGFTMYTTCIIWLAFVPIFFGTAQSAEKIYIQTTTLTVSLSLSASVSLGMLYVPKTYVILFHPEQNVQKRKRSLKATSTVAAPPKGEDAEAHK

## C[C@@H](C1CC1)N1Cc2cc(-c3cc(C(=O)N(C)C)no3)cc(Cl)c2C1=O [AZD8418]
mGluR2 [1]
  Diminished [3H]AZ12559322 binding in NHP prefrontal cortex: 40–45%

## COc1ccccc1Oc1ccc(N(Cc2cccnc2)S(=O)(=O)CC(F)(F)F)cc1 [LY-487379]
mGluR2 [1]
  Diminished [3H]AZ12559322 binding in NHP prefrontal cortex: 40–45%

## Cc1cc(-c2cccc(NS(C)(=O)=O)c2)cc2c1C(=O)N(C1CCC1)C2 [AZ12588953, N-(3-(2-cyclobutyl-7-methyl-1-oxoisoindolin-5-yl)phenyl)methanesulfonamide]
mGluR2 [2]
  Ki: 2.02 nM
  Kd: 4.7 nM

## Cc1cc(-c2cccc(NS(C)(=O)=O)c2)cc2c1C(=O)N(C(C)C)C2 [AZ12559322, N-[3-(2-isopropyl-7-methyl-1-oxo-2,3-dihydro-1H-isoindol-5-yl)phenyl]methanesulfonamide]
CYP2C9; at 1 μM
  inhibition at 1 µM: 8%
CYP2C9; at 10 μM
  inhibition at 10 µM: 46%
CYP2C19; at 1 μM
  inhibition at 1 µM: 13%
CYP2C19; at 10 μM
  inhibition at 10 µM: 51%
hERG channel
  IC50: 9350 nM
CYP2D6; at 1 μM
  inhibition at 1 µM: 0%
CYP2D6; at 10 μM
  inhibition at 10 µM: 11%
CYP3A4; at 1 μM
  inhibition at 1 µM: 0%
CYP3A4; at 10 μM
  inhibition at 10 µM: 12%
pKa
  pKa: 8.46
CYP1A2
  inhibition at 10 µM: 37%
mGluR2 [3]
  Kd: 1.31 nM
mGluR8
  IC50: > 20300 nM
mGluR3
  IC50: > 25000 nM
mGluR6
  IC50: > 30000 nM
mGluR7
  IC50: > 30000 nM
mGluR2 [4]
  IC50: 4.7 nM
mGluR2 [4]; against all other mGluRs
  Selectivity for mGluR2 over all other mGluR subtypes: > 4000 fold
mGluR4
  IC50: > 23600 nM
mGluR5
  IC50: > 30000 nM
mGluR1
  IC50: > 30000 nM
mGluR2 [2]
  Ki: 2.68 nM
  Kd: 11 nM
mGluR2 [2]; specific binding to mGluR2 in vitro
  Specific binding%: 89%

## Cc1cc(-c2cccc(NS(C)(=O)=O)c2)cc2c1C(=O)N([C@@H](C)C(F)(F)F)C2 [AZ12592068, (S)-N-(3-(2-(1,1,1-trifluoropropan-2-yl)-7-methyl-1-oxoisoindolin-5-yl)phenyl)methanesulfonamide]
mGluR2 [2]
  Ki: 0.71 nM
  Kd: 2 nM

## Cc1cc(-c2cccc(NS(C)(=O)=O)c2)cc2c1C(=O)N(C(C)C)C2 [[^3H]AZ12559322, [^3H]-N-[3-(2-Isopropyl-7-methyl-1-oxo-2,3-dihydro-1H-isoindol-5-yl)phenyl]methanesulfonamide]
mGluR2 [5]
  Regional distribution of radioligand binding in rat brain sections: heterogeneous distribution

## Cc1cc(-c2nc(CN3CCNCC3)no2)cc2c1C(=O)N(Cc1ccc(OC(F)(F)F)cc1)C2 [AZD8529]
mGluR2 [6]
  Modulation in in situ GTPγS ARG: positive modulation
mGluR2 [7]
  Modulation in in situ GTPγS ARG: positive modulation

## CC(C)N1Cc2cc(-c3cccc(NS(C)(=O)=O)c3)cc([11CH3])c2C1=O [[^11C]AZ12559322]
mGluR2 [8]
  Brain exposure in PET imaging: low brain uptake
